Test system: patients with MDD
Test: Five Phase II studies of vilazodone, eight weeks of treatment
Type: in vivo, human
Text: As part of the vilazodone development program, five Phase II studies have been conducted, all in patients with MDD. These studies randomized 2,098 patients for eight weeks of treatment, 1196 of whom received vilazodone.

Cl.N#Cc1ccc2[nH]cc(CCCCN3CCN(c4ccc5oc(C(N)=O)cc5c4)CC3)c2c1 [Vilazodone, 5-{4-[4-(5-Cyano-3-indolyl)-butyl]-1-piperazinyl}-benzofuran-2-carboxamide hydrochloride]
overall safety (Phase II studies): generally shown to be safe | clinically significant finding from ophthalmologic examinations (Phase II, subjects treated with vilazodone): increase in the incidence of mild ocular drying | primary efficacy variable compared to placebo (each of the Phase II studies): did not show a statistically significant difference | response stratified by baseline disease severity (exploratory analyses of Phase II studies): a larger treatment effect is observed for more severely depressed patients | most common adverse events (reported by at least ten percent of vilazodone-treated patients, Phase II, MDD): nausea, diarrhea, headache, insomnia, dizziness, dry mouth, somnolence, abnormal dreams, and vomiting
